Converted amounts (≈) assume the structure as drawn.
Columns and labels:
HSV-1 = assay: HSV Antiviral (ELISA) Assay in Vero cells; assay type: cell-based, herpes simplex virus type 1; conditions: Human alphaherpesvirus 1; HSV-1, Vero cells; read-out: IC50 (ug/ml) HSV
Method: Vero cells (ATCC #CCL-81) are plated on 96-well tissue culture plates at 3.5×10^4 cells per 100 μl tissue culture DMEM (Dulbeccos modified Eagle media) supplemented with 2% fetal bovine serum (FBS) in each well. After overnight incubation @ 37° C. (in 5% CO2) and 30 minutes prior to infection with HSV-1 (multiplicity of infection equal to 0.006), cells are either untreated, or treated with test compound (multiple concentrations) or reference standard drug control. After approximately 24 hours post-infection incubation @ 37° C. (in 5% CO2), cells are fixed for ELISA assay. The primary antibody is murine anti-HSV glycoprotein D monoclonal primary antibody and the secondary antibody is goat anti-mouse IgG linked to β-galactosidase. Thus the extent of viral replication is determined by assessing β-galactosidase activity by quantifying the generation of the 4-methyl umbelliferone fluorescent cleavage product after addition of the methyl umbelliferyl-β-D-galactoside (Sigma #M1633) substrate on a microfluorimeter (365 nm for excitation and 450 nm for emission). Antiviral activity (IC50) of the test compound is determined by comparing the flourescence obtained in absence of compound to that obtained in the presence of compound.

VZV strain Ellen = assay: VZV Antiviral (ELISA) Assay in human foreskin fibroblast cells; assay type: cell-based, varicella-zoster virus; conditions: Human alphaherpesvirus 3, Fibroblast; for inhibition at 10 µg/mL: read-out: % inhibition 10 ug/ml VZV, 10 ug/ml; for IC50: read-out: IC50 (ug/ml) VZV
Method: For the generation of stock VZV to be used in the assay, VZV strain Ellen (ATCC #VR-1367) is used to infect human foreskin fibroblast (HFF) cells at low multiplicity (less than 0.1) and incubated overnight at 37° C. in 5% CO2. After the overnight incubation, the mixture of uninfected and VZV-infected HFF infected cells are then harvested and added to each well of 96-well plates (3.5×10^4 cells in 100 μl DMEM supplemented with 2% FBS) which contain test compound or the reference standard drug control (in 100 μl DMEM supplemented with 2% FBS per well). These cells are incubated for three days at 37° C. in 5% CO2, then fixed for ELISA assay. The primary antibody is murine anti-VZV glycoprotein II monoclonal antibody (Applied Biosystems, Inc. #13-145-100) and the secondary antibody is goat anti-mouse IgG linked to β-galactosidase. Thus the extent of viral replication is determined by assessing β-galactosidase activity by quantifying the generation of the 4-methyl umbelliferone fluorescent cleavage product after addition of the methyl umbelliferyl-β-D-galactoside (Sigma #M1633) substrate on a microfluorimeter (365 nm for excitation and 450 nm for emission). Antiviral activity (IC50) of the test compound is determined by comparing the flourescence obtained in absence of compound to that obtained in the presence of compound.

| IC50 (HSV-1) [µg/mL] | SMILES | inhibition at 10 µg/mL (VZV strain Ellen) [%] | IC50 (VZV strain Ellen) [µg/mL] |
| --- | --- | --- | --- |
| 6 (≈ 13.6 µM) | COc1cccc(C(=O)Nc2ccc(NC(=S)Nc3ccc(OC)c(Cl)c3)cc2)c1 [Example 819, N-{4-[3-(3-Chloro-4-methoxy-phenyl)-thioureido]-phenyl}-3-methoxy-benzamide] | 93 | 2.5 (≈ 5.66 µM) |
| 4 (≈ 9.05 µM) | COc1ccc(C(=O)Nc2ccc(NC(=S)Nc3ccc(OC)c(Cl)c3)cc2)cc1 [Example 820, N-{4-[3-(3-Chloro-4-methoxy-phenyl)-thioureido]-phenyl}-4-methoxy-benzamide] | 20 | > 10 |
| 0.4 (≈ 0.897 µM) | CSc1ccc(NC(=S)Nc2ccc(NC(=O)c3ccccc3F)cc2)cc1Cl [Example 847, N-{4-[3-(3-Chloro-4-methylsulfanyl-phenyl)-thioureido]-phenyl}-2-fluoro-benzamide] | 65 | > 10 |
| 0.09 (≈ 0.205 µM) | COc1cc(C)c(Cl)cc1NC(=S)Nc1ccc(NC(=O)c2ccccc2C)cc1 [Example 850, N-{4-[3-(5-Chloro-2-methoxy-4-methyl-phenyl)-thioureido]-phenyl}-2-methyl-benzamide] | 28 | 5 (≈ 11.4 µM) |
| 4 (≈ 9.03 µM) | CN(C)c1ccc(NC(=S)Nc2ccc(NC(=O)c3ccccc3F)cc2)cc1Cl [Example 852, N-{4-[3-(3-Chloro-4-dimethylamino-phenyl)-thioureido]-phenyl}-2-fluoro-benzamide] | 80 | 6.5 (≈ 14.7 µM) |
| 2 (≈ 3.4 µM) | CN(c1ccc(NC(=S)Nc2ccc(NC(=O)c3ccccc3F)cc2)cc1Cl)C1CCN(Cc2ccccc2)C1 (centres unmarked) [Example 857, N-[4-(3-{4-[(1-Benzyl-pyrrolidin-3-yl)-methyl-amino]-3-chloro-phenyl}-thioureido)-phenyl]-2-fluoro-benzamide] | 80 | 7 (≈ 11.9 µM) |
| 4 (≈ 8.61 µM) | COc1c(Cl)cc(NC(=S)Nc2ccc(NC(=O)c3cccc(F)c3)cc2)cc1Cl [Example 872, N-{4-[3-(3,5-Dichloro-4-methoxy-phenyl)-thioureido]-phenyl}-3-fluoro-benzamide] | 28 | > 10 |
| 6 (≈ 15 µM) | O=C(Nc1ccc(NC(=S)Nc2ccccc2Cl)cc1)c1ccccc1F [Example 948, N-{4-[3-(2-Chloro-phenyl)-thioureido]-phenyl}-2-fluoro-benzamide] | 4 | > 10 |
| > 10 | CC(NC(=S)Nc1ccc(NC(=O)c2nccc3ccccc23)cc1)c1ccc(Br)cc1 (centres unmarked) [Example 978, Isoquinoline-1-carboxylic acid (4-{3-[1-(4-bromo-phenyl)ethyl]-thioureido}-phenyl)-amide] |  | 0.04 (≈ 0.0791 µM) |
| > 10 | CC(NC(=S)Nc1ccc(NC(=O)c2cc3ccccc3o2)cc1)c1ccc(Br)cc1 (centres unmarked) [Example 982, Benzofuran-2-carboxylic acid (4-{3-[1-(4-bromo-phenyl)-ethyl]-thioureido}-phenyl)-amide] |  | 0.1 (≈ 0.202 µM) |
| > 10 | CC(NC(=S)Nc1ccc(NC(=O)c2cc3ccccc3cn2)cc1)c1ccc(C#N)cc1 (centres unmarked) [Example 986, Isoquinoline-3-carboxylic acid (4-{3-[1-(4-cyano-phenyl)-ethyl]-thioureido}-phenyl)-amide] |  | 0.05 (≈ 0.111 µM) |
| 3 (≈ 5.94 µM) | CC(NC(=S)Nc1ccc(NC(=O)c2cc3ccccc3cn2)cc1)c1ccc(Br)cc1 (centres unmarked) [Example 987, Isoquinoline-3-carboxylic acid (4-{3-[1-(4-bromo-phenyl)-ethyl]-thioureido}-phenyl)-amide] |  | 0.046 (≈ 0.091 µM) |
| > 10 | COc1ccc(C(C)NC(=S)Nc2ccc(NC(=O)c3ccccc3F)cc2)cc1Cl (centres unmarked) [Example 1000, N-(4-{3-[1-(3-Chloro-4-methoxy-phenyl)-ethyl]-thioureido}-phenyl)-2-fluoro-benzamide] |  | 6 (≈ 13.1 µM) |
| > 10 | C[C@H](NC(=S)Nc1ccc(NC(=O)c2ccccc2F)cc1)c1ccc(Br)cc1 [Example 1004, (S)-N-(4-{3-[1-(4-Bromo-phenyl)-ethyl]-thioureido}-phenyl)-2-fluoro-benzamide] |  | 0.06 (≈ 0.127 µM) |
| > 10 | Cc1ccc([C@H](C)NC(=S)Nc2ccc(NC(=O)c3ccccc3F)cc2)cc1 [Example 1011, 2-Fluoro-N-{4-[3-((1S)-1-p-tolyl-ethyl)-thioureido]-phenyl}-benzamide] |  | 0.55 (≈ 1.35 µM) |
| > 10 | Cc1ccc([C@@H](C)NC(=S)Nc2ccc(NC(=O)c3ccccc3F)cc2)cc1 [Example 1012, 2-Fluoro-N-{4-[3-((1R)-1-p-tolyl-ethyl)-thioureido]-phenyl}-benzamide] |  | > 7.5 |
| > 10 | C[C@H](NC(=S)Nc1ccc(NC(=O)c2ccccc2F)cc1)c1ccccc1 [Example 1013, 2-Fluoro-N-{4-[3-((1S)-1-phenyl-ethyl)-thioureido]-phenyl}-benzamide] |  | 0.27 (≈ 0.686 µM) |

The remaining lines, values behind:

| SMILES | IC50 (HSV-1) [µg/mL] | inhibition at 10 µg/mL (VZV strain Ellen) [%] | IC50 (VZV strain Ellen) [µg/mL] |
| --- | --- | --- | --- |
| COc1cc(OC)c(NC(=S)Nc2ccc(NC(=O)c3ccccc3F)cc2)cc1Br [Example 827, N-{4-[3-(5-Bromo-2,4-dimethoxy-phenyl)-thioureido]-phenyl}-2-fluoro-benzamide] | 0.2 (≈ 0.397 µM) | 70 | 3.5 (≈ 6.94 µM) |
| CC(O)c1ccc(NC(=S)Nc2ccc(NC(=O)c3ccccc3F)cc2)cc1Cl (centres unmarked) [Example 865, N-(4-{3-[3-Chloro-4-(1-hydroxy-ethyl)-phenyl]-thioureido}-phenyl)-2-fluoro-benzamide] | 4 (≈ 9.01 µM) | 52 | > 10 |
| COc1c(Cl)cc(NC(=S)Nc2ccc(NC(=O)c3ccccc3F)cc2)cc1Cl [Example 874, N-{4-[3-(3,5-Dichloro-4-methoxy-phenyl)-thioureido]-phenyl}-2-fluoro-benzamide] | 5 (≈ 10.8 µM) | 75 | 3.5 (≈ 7.54 µM) |
| COc1cccc(C(=O)Nc2ccc(NC(=S)Nc3cc(Cl)c(OC)c(Cl)c3)cc2)c1 [Example 875, N-{4-[3-(3,5-Dichloro-4-methoxy-phenyl)thioureido]-phenyl}-3-methoxy-benzamide] | 6 (≈ 12.6 µM) | 20 | > 10 |
| COc1ccc(C(=O)Nc2ccc(NC(=S)Nc3cc(Cl)c(OC)c(Cl)c3)cc2)cc1 [Example 880, N-{4-[3-(3,5-Dichloro-4-methoxy-phenyl)-thioureido]-phenyl}-4-methoxy-benzamide] | > 10 | 30 | > 10 |
| O=C(Nc1ccc(NC(=S)Nc2cccc(Cl)c2Cl)cc1)c1ccccc1F [Example 927, N-{4-[3-(2,3-Dichloro-phenyl)-thioureido]-phenyl}-2-fluoro-benzamide] | 5 (≈ 11.5 µM) | 1 |  |
| CC(NC(=S)Nc1ccc(NC(=O)c2nccc3ccccc23)cc1)c1ccc(C#N)cc1 (centres unmarked) [Example 979, Isoquinoline-1-carboxylic acid (4-{3-[1-(4-cyano-phenyl)-ethyl]-thioureido}-phenyl)-amide] | > 10 |  | 0.13 (≈ 0.288 µM) |
| CC(NC(=S)Nc1ccc(NC(=O)c2cc3ccccc3o2)cc1)c1ccc(C#N)cc1 (centres unmarked) [Example 983, Benzofuran-2-carboxylic acid (4-{3-[1-(4-cyano-phenyl)-ethyl]-thioureido}-phenyl)-amide] | > 10 |  | 0.6 (≈ 1.36 µM) |
| CC(NC(=S)Nc1ccc(NC(=O)c2cc3ccccc3cn2)cc1)c1ccc(F)cc1 (centres unmarked) [Example 984, Isoquinoline-3-carboxylic acid (4-{3-[1-(4-fluoro-phenyl)ethyl]-thioureido}-phenyl)-amide] | 7.2 (≈ 16.2 µM) |  | 0.08 (≈ 0.18 µM) |
| CC(NC(=S)Nc1ccc(NC(=O)c2cccc3cccnc23)cc1)c1ccc(F)cc1 (centres unmarked) [Example 991, Quinoline-8-carboxylic acid (4-{3-[1-(4-fluoro-phenyl)-ethyl]-thioureido}-phenyl)-amide] | > 10 |  | 0.1 (≈ 0.225 µM) |
| C[C@@H](NC(=S)Nc1ccc(NC(=O)c2ccccc2F)cc1)c1ccc(Br)cc1 [Example 1005, N-(4-{3-[(1R)-1-(4-Bromo-phenyl)-ethyl]-thioureido}-phenyl)-2-fluoro-benzamide] | 2.9 (≈ 6.14 µM) |  | 4.3 (≈ 9.1 µM) |
| CC(NC(=S)Nc1ccc(NC(=O)c2ccccc2F)cc1)c1ccc(S(=O)(=O)N(C)C)cc1 (centres unmarked) [Example 1008, N-(4-{3-[1-(4-Dimethylsulfamoyl-phenyl)-ethyl]-thioureido}-phenyl)-2-fluoro-benzamide] | > 10 |  | > 10 |
